Structures can show the parent of a compound that is named as a salt.

Consider `CCCCCCCCCCCCCC(=O)OCCOCC[N+](C)(C)C` (as salt: iodide) [Compound 15, N-myristoyloxyethoxyethyl-N,N,N-trimethylammonium iodide], for which the melting point fell in the range of 92 to 94 °C.

For the compound `CCCCCCCCCCCCCCCC(=O)OCCC[N+](C)(C)C` (as salt: iodide) [Compound 6, N-palmitoyloxypropyl-N,N,N-trimethylammonium iodide], the melting point was 116 to 118 °C. Then `CCCCCCCCCCCCCC(=O)OCCC[N+](C)(C)CCC` (as salt: iodide) [Compound 9, N-myristoyloxypropyl-N,N-dimethyl-N-propylammonium iodide], with 80 to 82 °C. As to `CCCCCCCCCCCCCCCCCC(=O)OCCC[N+](C)(C)C` (as salt: iodide) [Compound 7, N-stearoyloxypropyl-N,N,N-trimethylammonium iodide], the melting point was 116 to 118 °C.

Compound `CCCCCCCCCCCCCC(=O)OCCC[N+](C)(C)CC` (as salt: iodide) [Compound 8, N-myristoyloxypropyl-N,N-dimethyl-N-ethylammonium iodide] yielded a melting point of 60 to 62 °C. `CCCCCCCCCCCCCC(=O)OCCC[N+](C)(C)Cc1ccccc1` (as salt: chloride) [Compound 1, N-myristoyloxypropyl-N-benzyl-N,N-dimethylammonium chloride] returned a melting point of 93 to 95 °C. On to `CCCCCCCCCCCCCC(=O)OCCC[N+](C)(C)CCCCCCCCCC` (as salt: iodide) [Compound 13, N-myristoyloxypropyl-N-decyl-N,N-dimethylammonium iodide], for which the melting point is 103 to 104 °C. As to `CCCCCCCCCCCCCC(=O)OCCC[N+](C)(C)CCCCCC` (as salt: iodide) [Compound 12, N-myristoyloxypropyl-N,N-dimethyl-N-hexylammonium iodide], the melting point was 78 to 79 °C. The compound `CCCCCCCCCCCCCC(=O)OCCC[N+](C)(C)CCCC` (as salt: iodide) [Compound 10, N-myristoyloxypropyl-N-butyl-N,N-dimethylammonium iodide] came in with a melting point of 87 to 89 °C. `CCCCCCCCCCCCCC(=O)OCCC[N+](C)(C)C` (as salt: iodide) [Compound 5, N-myristoyloxypropyl-N,N,N-trimethylammonium iodide]: the melting point was 118 to 120 °C. Then `CCCCCCCCCCCC(=O)OCCC[N+](C)(C)C` (as salt: iodide) [Compound 4, N-lauroyloxypropyl-N,N,N-trimethylammonium iodide], with 121 to 124 °C.

Usually melting point stands for the temperature of the solid-liquid transition.
